In the test the target is GPR84 (Homo sapiens (Human), UniProt Q9NQS5). Description: Gai biosensor BRET assay (GPR84-mediated activation of Gai, antagonist mode against agonist ZQ-16). It is filed as cell-based. As to conditions: for inhibition at 10 µM: compound tested at 10 μM (concentration code D); for IC50: HEK293 cells, 200 nmol/L GPR84 agonist ZQ-16, read-out: hGPR84 IC50; for inhibition at 25 µM: compound tested at 25 μM (concentration code G); for inhibition at 2 µM: compound tested at 2 μM (concentration code A); for inhibition at 12.5 µM: compound tested at 12.5 μM (concentration code E). The method in brief: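 Transiently transfected HEK293 cells expressing GPR84, Gαi2-Rluc8, GFP10-Gγ2 and Gβ1, in Tyrode's buffer pH 7.5. Compounds pre-incubated 5 min at 37° C, then 200 nmol/L ZQ-16 for 5 min at room temperature; BRET² with coelenterazine 400A, ligand-promoted net BRET after background and vehicle subtraction.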
GPR84, sequence (Q9NQS5 whole entry): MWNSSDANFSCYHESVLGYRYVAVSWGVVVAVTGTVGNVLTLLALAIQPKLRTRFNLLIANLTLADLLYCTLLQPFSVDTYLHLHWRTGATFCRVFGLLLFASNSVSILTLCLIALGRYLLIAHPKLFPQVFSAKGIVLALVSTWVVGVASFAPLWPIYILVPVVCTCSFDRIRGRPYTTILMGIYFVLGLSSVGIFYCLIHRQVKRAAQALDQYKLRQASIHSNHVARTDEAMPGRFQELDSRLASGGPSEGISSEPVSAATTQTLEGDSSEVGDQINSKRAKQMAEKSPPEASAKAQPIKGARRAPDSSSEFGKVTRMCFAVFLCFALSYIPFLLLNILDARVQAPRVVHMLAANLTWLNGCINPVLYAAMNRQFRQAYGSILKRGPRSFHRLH
A general note: BRET reads energy transfer from a luciferase to a nearby fluorophore.

In general, inhibition refers to the drop in the measured response relative to a control, in per cent. Usually IC50 stands for the concentration needed to halve the response being measured.

Where only a bound is given, the exact number is not on record here.

For `Cc1cc(OCc2ncccn2)nc(=O)n1C(C)c1ccc(C#CC2CC2)cc1` (centres unmarked) [Compound I-320], the inhibition at 10 µM lay in the range of 50 to 75%.
For the compound `Cc1cc(OCc2cccnc2Cl)cc(=O)n1[C@H](C)c1ccc(C#CC2CC2)cc1` [Compound I-305], the inhibition at 10 µM was above 75%.
For `Cc1cc(OCc2ncccn2)cc(=O)n1C(C)c1ccc(C#CC2CCC2)c(F)c1` (centres unmarked) [Compound I-366], the inhibition at 10 µM is above 75%.
For `Cc1cc(OCc2ncco2)cc(=O)n1[C@H](C)c1ccc(C#CC2CC2)cc1` [Compound I-296], the IC50 was below 5 µM and the inhibition at 10 µM was above 75%.
The compound `Cc1cc(OCc2ncccn2)cc(=O)n1[C@H](C)c1ccc(C#N)cc1` [Compound I-243] came in with an inhibition at 10 µM below 25%.
The same measure, in the same setting: the figure for `Cc1cc(OCC2CCOCC2)cc(=O)n1[C@H](C)c1ccc(N2CC(C)(C)C2)cc1` (stereo in doubt) [Compound I-148] is 25 to 50%.
`COc1cc(OCC2COCCO2)nc(-c2ccc(OCC(F)(F)F)cc2C)c1C` (centres unmarked) [Compound I-112] yielded an inhibition at 25 µM below 25%.
Regarding `Cc1cc(OCc2ncccn2)cc(=O)n1C(C)c1cccc(C#CC2CC2)c1` (centres unmarked) [Compound I-261], the inhibition at 10 µM is below 25%.
`O=C(NCC1CCCO1)N1CCc2cc(C#CC3CC3)ccc2C1` (centres unmarked) [Compound I-183]: under “compound tested at 1 μM (concentration code A*)”, the inhibition at 1 µM is below 25%.
With `Cc1cc(OCc2ccccn2)ccc1-c1cc(OCC2COc3ncccc3O2)cc(=O)[nH]1` (centres unmarked) [Compound I-48], the inhibition at 10 µM was in the range of 25 to 50%.
The compound `Cc1cc(OCc2ncccn2)cc(=O)n1C(C)c1ccc(C#CC2CC2)nc1` (centres unmarked) [Compound I-287] showed an inhibition at 10 µM of 25 to 50%.
Consider `O=C(CC1CCCCO1)N1Cc2ccc(C#CC3CC3)cc2C1` (centres unmarked) [Compound I-186], for which the inhibition at 25 µM was 25 to 50%.
For the compound `COc1cc(OCC2COCCO2)cc(-c2c(C)cc(OCc3ccccn3)cc2C)n1` (centres unmarked) [Compound I-46], the inhibition at 25 µM lay in the range of 25 to 50%.
The same measure, in the same setting: the result for `FC(F)(F)COc1ccc(-c2nc(OCC3COCCO3)cc3c2OCCC3)cc1` (centres unmarked) [Compound I-160] reads below 25%.
Consider `Cc1cc(OCc2cccnn2)cc(=O)n1[C@H](C)c1ccc(C#CC2CC2)cc1` [Compound I-291], for which the 50% inhibitory concentration (IC50) was below 5 µM and the inhibition at 2 µM is above 75%.
`Cc1c(-c2ccc(OCC(F)(F)F)cc2)n(C)c(OCC2COCCO2)cc1=O` (centres unmarked) [Compound I-52] registered an inhibition at 12.5 µM of 25 to 50%.
Consider `Cc1cc(OCc2ncccn2)cc(=O)n1[C@@H](C)Cc1cccc(C#CC2CC2)c1` (stereo in doubt) [Compound I-282], for which the inhibition at 10 µM was below 25%.
Take `Cc1cc(OCc2nccs2)cc(=O)n1[C@H](C)c1ccc(C#CC2CC2)cc1` [Compound I-293]: the concentration for half-maximal inhibition (IC50) was below 5 µM and the inhibition at 2 µM was above 75%.
In the case of `CC(c1ccc(C#CC2CC2)cn1)n1ccc(OCc2ncccn2)cc1=O` (centres unmarked) [Compound I-249], the inhibition at 10 µM was 25 to 50%.
`Cc1cc(OCc2ccccn2)ccc1-c1cc(OCC2COCCO2)cc(Cl)n1` (centres unmarked) [Compound I-58]: the half-maximal inhibitory concentration (IC50) was above 12.5 µM and the inhibition at 12.5 µM lay within 25 to 50%.
Consider `C(#CC1CC1)c1ccc(-c2cncc(OCC3CCCCO3)c2)cc1` (centres unmarked) [Compound I-25], for which the half-maximal inhibitory concentration (IC50) is 5 to 10 µM and the inhibition at 12.5 µM was 50 to 75%.
The compound `[O-][n+]1cc(OCC2COCCO2)cc(-c2ccc(OCC(F)(F)F)cc2)c1` (centres unmarked) [Compound I-59] came in with an inhibition at 25 µM of 25 to 50%.
Compound `Cc1cc([C@@H](C)n2c(C)cc(OCc3ncccn3)cc2=O)ccc1C#CC1CC1` [Compound I-373] yielded an inhibition at 10 µM above 75%.
In turn, `FC(F)(F)COc1ccc(-c2cc(OCC3COCCO3)cc3c2OCCO3)cc1` (centres unmarked) [Compound I-155] displayed an inhibition at 25 µM below 25%.
`Cc1cc(OCc2ncccc2F)cc(=O)n1C(C)c1ccc(C#CC2CC2)nc1` (centres unmarked) [Compound I-327] had an inhibition at 10 µM of 50 to 75%.
`Cc1cc(NC(=O)c2ncccn2)cc(=O)n1[C@H](C)c1ccc(C#CC2CC2)cc1` [Compound I-360]: the IC50 was below 5 µM and the inhibition at 10 µM is above 75%.
Consider `Cc1cc(OC[C@@H]2COCCO2)cc(=O)n1[C@H](C)c1ccc(C#CC2CC2)cc1` [Compound I-396], for which the IC50 is below 5 µM.
In the case of `O=C(CC1CCOCC1)N1Cc2ccc(C#CC3CC3)cc2C1` [Compound I-180], the half-maximal inhibitory concentration (IC50) was above 25 µM and the inhibition at 25 µM lay within 50 to 75%.
For the compound `Cc1cc(OCc2ncccn2)cc(=O)n1C(C)c1ccc2cc(C3CC3)ccc2c1` (centres unmarked) [Compound I-354], the inhibition at 2 µM was below 25%.
Regarding `Cc1cc(OCc2ncccn2)cc(=O)n1[C@H](C)c1ccc(C#CC2CC2)c(F)c1` [Compound I-325], the concentration for half-maximal inhibition (IC50) was below 5 µM and the inhibition at 10 µM is above 75%.
In turn, `CCCCCCOc1ccc(C(C)n2c(C)cc(OCc3ncccn3)cc2=O)cc1` (centres unmarked) [Compound I-345] registered an inhibition at 10 µM below 25%.
Still for that read-out and setting: the figure for `Cc1cc(OCC2COCCO2)cc(=O)n1CCc1ccc(C#CC2CC2)cc1` (centres unmarked) [Compound I-234] is 50 to 75%.
`Cc1cc(OCC2COCCO2)cc(=O)n1[C@H](C)c1ccc(C#CCNS(=O)(=O)C2CC2)cc1` (some centres unmarked) [Compound I-149] showed an inhibition at 10 µM below 25%.
Take `Cc1cc(OCc2cnnn2C)cc(=O)n1[C@H](C)c1ccc(C#CC2CC2)cc1` [Compound I-359]: the IC50 was below 5 µM and the inhibition at 10 µM was above 75%.
The compound `O=C(CC1CCCCO1)N1CCc2cc(C#CC3CC3)ccc2C1` (centres unmarked) [Compound I-187] yielded an inhibition at 10 µM of 25 to 50%.
`Cc1cc(OCC2CCOCC2)cc(=O)n1[C@H](C)c1ccc(C#CC2CC2)cc1` (stereo in doubt) [Compound I-20] came in with an inhibition at 10 µM of 50 to 75%.
The compound `Cc1cc(OCC2COCCO2)cc(=O)n1-c1cccc(C#CC2CC2)c1` (centres unmarked) [Compound I-226] showed an inhibition at 10 µM of 50 to 75%.
Take `Cc1cc(C#CC2CC2)ccc1-c1cncc(OCC2COCCO2)c1` (centres unmarked) [Compound I-43]: the inhibition at 10 µM lay within 25 to 50%.
`Cc1cc(OCc2ncccn2)cc(=O)n1[C@H](C)c1ccc(CCC2CC2)cc1` [Compound I-310] displayed an inhibition at 10 µM of 25 to 50%.
In turn, `Cc1cc(OCc2ccccn2)ccc1-c1cc(OCC2COCCO2)[nH]c(=O)c1` (centres unmarked) [Compound I-120] gave an inhibition at 10 µM below 25%.
For `Cc1cc(OCc2cscn2)cc(=O)n1[C@H](C)c1ccc(C#CC2CC2)cc1` [Compound I-294], the IC50 was below 5 µM and the inhibition at 10 µM was above 75%.
In the case of `CCn1ccnc1COc1cc(C)n([C@H](C)c2ccc(C#CC3CC3)cc2)c(=O)c1` [Compound I-356], the IC50 is below 5 µM and the inhibition at 2 µM is above 75%.
The compound `Cn1c(-c2ccc(C#CC3CC3)cc2)cc(=O)n(C[C@H]2COCCO2)c1=O` [Compound I-122] came in with an inhibition at 10 µM below 25%.
Still for that read-out and setting: the figure for `COc1ccc2nc(-c3ccc(C#CC4CC4)cc3)cn2c1` [Compound I-216] is below 25%; for `Cc1cc(OCC2CCCCO2)cc(=O)n1C(C)c1ccc(OCC(F)(F)F)cc1` (centres unmarked) [Compound I-274] it is below 25%.
In turn, `O=c1cc(OCC2COCCO2)cc(-c2ccc(C#CC3CC3)cc2)[nH]1` (centres unmarked) [Compound I-8] gave an inhibition at 25 µM below 25%.
On the same count and under the same terms, the result for `C(#CC1CC1)c1ccc(-c2cc(OCC3CCCCO3)ncn2)cc1` (centres unmarked) [Compound I-54] reads below 25%.
In turn, `Cc1cc(OC[C@@H]2CCCCO2)cc(=O)n1[C@H](C)c1ccc(C#CC2CC2)cc1` (stereo in doubt) [Compound I-144] returned an inhibition at 10 µM above 75%.

These data come from patent US20250340543A1, “GPR84 ANTAGONISTS AND USES THEREOF” (Liminal BioSciences Limited, priority 2021, published 2025).
